From patent publication US10376520B2, “Methods for the treatment of cardiovascular disorders” (Galapagos NV, priority 2015, dated 2019)

System: RA patients
Assay: Plasma Lecithin-Cholesterol Acyltransferase (LCAT) activity, Study 4
Assay type: in vivo, human
Conditions: for LCAT level, 4 weeks CFB: 4 weeks change from baseline
Experimental: Randomized double-blind, placebo-controlled add on study in subjects with active RA who have an inadequate response to MTX monotherapy, in combination with methotrexate, administered for 4 weeks in the treatment of subjects with active rheumatoid arthritis who have an inadequate response to methotrexate alone.
Compound 1 (dosed as a [Compound 1:HCl:3H2O]) capsules administered orally in 30 mg, 75 mg, 150 mg, or 300 mg doses per day for 4 weeks.
LCAT activity was determined using a commercial available assay from Roar Biomedical. In short; incubation media contained 0.5 μL substrate reagent, 4 μL plasma in a final volume of 100 μL assay buffer. Incubations were performed for 1 h at 37° C. in a microtiter plate. Hereafter 200 μL READ reagent was added to the wells and after mixing, 200 μL was transferred to a black fluorescence compatible microplate. The plate was read at 340 nm excitation, 390 nm and 450 nm emission. LCAT activity was expressed as a ratio of the emission at 390 nm and 450 nm. These two wavelengths represent the LCAT substrate hydrolysed and not hydrolysed. An increase in the ratio indicates increased LCAT activity. Catalogue number RB-LCAT, Lot number used 13581392.

O=C(Nc1nc2cccc(-c3ccc(CN4CCS(=O)(=O)CC4)cc3)n2n1)C1CC1 [Compound 1, cyclopropanecarboxylic acid {5-[4-(1,1-dioxo-thiomorpholin-4-ylmethyl)-phenyl]-[1,2,4]triazolo[1,5-a]pyridin-2yl}-amide] was tested, and the “LCAT level, 4 weeks CFB” value (30 mg q.d.) was 0.4%, the LCAT activity (emission ratio) (30 mg q.d., baseline) was 1.9 and the LCAT activity (emission ratio) (30 mg q.d., week 4) was 2. For the same compound, the “LCAT level, 4 weeks CFB” value (75 mg q.d.) was 4.2%, the LCAT activity (emission ratio) (75 mg q.d., baseline) was 2 and the LCAT activity (emission ratio) (75 mg q.d., week 4) was 2.1. The “LCAT level, 4 weeks CFB” value (150 mg q.d.) was 2.9%, the LCAT activity (emission ratio) (150 mg q.d., baseline) was 1.9 and the LCAT activity (emission ratio) (150 mg q.d., week 4) was 1.9. The “LCAT level, 4 weeks CFB” value (300 mg q.d.) was 4.4%, the LCAT activity (emission ratio) (300 mg q.d., baseline) was 2 and the LCAT activity (emission ratio) (300 mg q.d., week 4) was 2.1.
